Experimental data: PubChem BioAssay (NCI)
Where “and” joins values, the source holds several entries; their conditions need not be identical. Identical values can stand only once.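 How tested: cells in 96-well plates exposed to compound for 48 hours at five concentrations. The concentration for 50% growth inhibition is given as GI50. TGI marks complete inhibition of growth.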

Assays:
Experiment in all cases: NCI-60 cell line screen, 48 h
RPMI-8226 leukemia = tested on: RPMI-8226 leukemia
M14 melanoma = tested on: M14 melanoma
SK-MEL-28 melanoma = tested on: SK-MEL-28 melanoma
RXF 393 renal = tested on: RXF 393 renal
SW-620 colon = tested on: SW-620 colon
A498 renal = tested on: A498 renal
SNB-75 CNS = tested on: SNB-75 CNS
CAKI-1 renal = tested on: CAKI-1 renal
OVCAR-3 ovarian = tested on: OVCAR-3 ovarian
COLO 205 colon = tested on: COLO 205 colon

Structure (SMILES)	TGI (RPMI-8226 leukemia) [µM]	TGI (M14 melanoma) [µM]	TGI (SK-MEL-28 melanoma) [µM]	TGI (RXF 393 renal)	TGI (SW-620 colon) [µM]	TGI (A498 renal) [µM]	TGI (SNB-75 CNS) [µM]	TGI (CAKI-1 renal) [µM]	TGI (OVCAR-3 ovarian) [µM]	TGI (COLO 205 colon) [µM]	GI50 (RPMI-8226 leukemia) [µM]	GI50 (M14 melanoma)	GI50 (SK-MEL-28 melanoma) [µM]	GI50 (RXF 393 renal)	GI50 (SW-620 colon) [µM]	GI50 (A498 renal) [µM]	GI50 (SNB-75 CNS) [µM]	GI50 (CAKI-1 renal) [µM]	GI50 (OVCAR-3 ovarian) [µM]	GI50 (COLO 205 colon) [µM]
O=C1c2ccccc2C(=O)c2c(/C=C\N3CCCCC3)ccnc21	52.6	1.26	2.96	23.1 µM	4.48	31.8	7.2	39.5	9.53	6.06	–	–	–	–	–	–	–	–	–	–
CCNC(=O)C#Cc1ccc2c(C(=Nc3ccc(CN(C)C)cc3)c3ccccc3)c(O)[nH]c2c1	3.19	0.114	0.102	0.703 µM	1.54	0.179	2.21	> 9.05	> 10	0.0711	0.434	0.00782 µM	0.00911	0.123 µM	0.0156	0.0274	0.75	0.119	0.752	0.00363
Cn1cc(-c2cc3c(N4CCN(c5ncc([C@@](C)(N)c6ccc(F)cc6)cn5)CC4)ncnn3c2)cn1	–	> 100	–	> 100 µM	–	> 100	> 100	> 100	–	–	–	4.42 µM	–	2.66 µM	–	6.24	1.39	2.63	–	–
CN1CCN(c2ccc(Nc3ncc(Cl)c(NC[C@@H]4CCCO4)n3)cc2)CC1	5.63	11.2	21.5	3.42 µM	> 100	3.36	4.72	> 100	> 100	2.96	1.48	1.13 µM	4.18	0.746 µM	0.538	0.803	1.14	2.07	2.53	0.547
N#CC(C(=O)CCC(=O)Nc1ccc(Cl)c(Cl)c1)c1ccccc1 (stereo not given)	> 100	> 100	> 100	> 100 µM	> 100	> 100	> 100	> 100	> 100	–	–	–	–	–	–	–	–	–	–	–
O=C(Nc1cccc(C(F)(F)F)c1)Nc1cccc(C(F)(F)F)c1	5.6	3.93	10.5	4.35 µM	6.88	–	31.7	11.2	5.04	2.59	0.382	1.32 µM	1.86	1.49 µM	0.798	–	3.49	1.81	0.408	0.985
NC(=S)N/N=C1\c2cc(Cl)ccc2-c2c1cc(Cl)cc2[N+](=O)[O-]	20.5	> 100	> 100	89.4 µM	> 100	8.57	28.3	> 100	40.8	22.2	3.44	3.27 µM	3.83	10.4 µM	10.7	1.38	2.84	7.21	4.66	3.84
Cc1cc2c(cc1C)[n+](=O)c(C(=O)c1ccccc1)c(C(F)F)n2[O-]	43.9	> 100	> 100	–	> 100	91.1	> 100	71.7	> 100	35.5	5.81	16.9 µM	17.8	–	21.2	24.5	60.9	15.5	18.4	9.83
O=C(NC1C=CCC2C(=O)N(c3ccccc3)C(=O)C12)OCc1ccccc1 (stereo not given)	> 100	> 100	> 100	> 100 µM	> 100	–	> 100	> 100	> 100	> 100	–	–	–	–	–	–	–	–	–	–
Clc1ccc2cccc3c2c1C1OC3c2ccccc21 (stereo not given)	> 100	> 100	> 100	> 100 µM	> 100	> 100	> 100	–	> 100	> 100	–	–	–	–	–	–	–	–	–	–
CCOC(=O)n1cc(C2=C(c3ccc(OC)c(OC)c3)COC2=O)c2ccccc21	1.65	> 100	> 100	> 100 µM	> 100	0.139	–	37.1	0.114	0.94	0.0327	0.0348 µM	0.271	0.0252 µM	0.0417	0.0226	–	0.0465	0.0332	0.0522
S=P1(Oc2ccccc2)NNP2(=NP(N3CC3)(N3CC3)=NP(N3CC3)(N3CC3)=N2)NN1 (stereo not given)	> 100	–	> 100	–	> 100	> 100	> 100	> 100	> 100	> 100	–	–	–	–	–	–	–	–	–	–
NC(N)=NS(=O)(=O)c1ccc(N=Nc2c(O)c(C(=O)O)cc3ccccc23)cc1	> 100	> 100	> 100	> 100 µM	> 100	–	> 100	> 100	> 100	> 100	–	–	–	–	–	–	–	–	–	–
CCOC(=O)C1Sc2ccccc2N=C1C (stereo not given)	> 100	–	> 100	> 100 µM	> 100	> 100	> 100	–	> 100	> 100	–	–	–	–	–	–	–	–	–	–
Fc1cc(-c2nnc3n2N=C(c2ccc(Cl)cc2)CS3)c(Cl)cc1Cl	–	17.2	34.8	14.7 µM	3	42.4	21.9	17.4	35.8	49.1	–	4.87 µM	7.56	5.57 µM	1.55	21	7.33	4.61	13.6	7.08
C/C=C/[C@@H]1O[C@@H]2COC(=O)C2=C[C@@H]1O	7.18	35.3	32.9	39.7 µM	5.07	–	54	5.03	22.2	> 19.6	2.55	13.7 µM	15.3	15 µM	2.13	–	28.5	2.14	4.19	2.78
CC(=O)[O-].CC(=O)[O-].O=C(N/N=C/c1cc(Cl)cc(Cl)c1O)c1ccncc1.[Cu+2]	> 100	> 100	> 100	> 100 µM	> 100	> 100	> 100	–	> 100	> 100	–	–	–	–	–	–	–	–	–	–
O=C(O)CSc1n[nH]c(-c2ccccc2O)n1	> 100	> 100	> 100	> 100 µM	> 100	> 100	> 100	> 100	> 100	–	–	–	–	–	–	–	–	–	–	–

Structure (SMILES)	TGI (RPMI-8226 leukemia) [µM]	TGI (M14 melanoma) [µM]	TGI (SK-MEL-28 melanoma) [µM]	TGI (RXF 393 renal)	TGI (SW-620 colon) [µM]	TGI (A498 renal) [µM]	TGI (SNB-75 CNS) [µM]	TGI (CAKI-1 renal) [µM]	TGI (OVCAR-3 ovarian) [µM]	TGI (COLO 205 colon) [µM]	GI50 (RPMI-8226 leukemia) [µM]	GI50 (M14 melanoma)	GI50 (SK-MEL-28 melanoma) [µM]	GI50 (RXF 393 renal)	GI50 (SW-620 colon) [µM]	GI50 (A498 renal) [µM]	GI50 (SNB-75 CNS) [µM]	GI50 (CAKI-1 renal) [µM]	GI50 (OVCAR-3 ovarian) [µM]	GI50 (COLO 205 colon) [µM]
NCCNCCNCCN	–	> 100	> 100	> 100 µM	> 100	> 100	> 100	> 100	> 100	> 100	–	> 100 µM	> 100	> 100 µM	> 100	> 100	> 100	> 100	> 100	> 100
Cc1[cH-]c(=O)n(-c2ccccc2)n1.[Au+].[Au].c1ccc([PH+](c2ccccc2)c2ccccc2)cc1.c1ccc([PH+](c2ccccc2)c2ccccc2)cc1	> 100	41.5	14.9	3.32 µM and 28.5 µM	81.4	38.9	39.3	–	39.1	60.6	99.4	9.12 µM and 9.46 µM	2.52	0.756 µM and 6.89 µM	26.9	23.9	14.7	–	16.7	25.3
CC(=O)OCc1ccc2c(c1)C(O)NC(=O)O2 (stereo not given)	73.6	> 100	> 100	> 100 µM	> 100	–	> 100	> 100	59.4	> 100	–	–	–	–	–	–	–	–	–	–
C=C(C)C12OC1[C@@]1(C)C(=CC2=O)CCC(O)[C@@H]1C (stereo not given in full)	24	18.1	> 100	–	> 100	62.5	38.8	3	> 100	6.5	–	–	–	–	–	–	–	–	–	–
CCCCCCCCCCCCNC(=S)OC	27.5	32.1	37.9	25.7 µM	30.2	31.6	45	28.3	–	–	–	–	–	–	–	–	–	–	–	–
CCOC(=O)C1=C(C)N(NC(=O)Nc2ccccc2)C2(N)N(NC(=O)Nc3ccccc3)C(C)=C(C(=O)OCC)C12C(=O)OCC (stereo not given)	> 100	> 100	> 100	22.4 µM	> 100	> 100	98.1	–	> 100	3.25	–	–	–	–	–	–	–	–	–	–
Cc1ccc(S(=O)(=O)N2CCC2c2ccccc2)cc1 (stereo not given)	> 100	> 100	> 100	> 100 µM	> 100	> 100	> 100	–	> 100	> 100	–	–	–	–	–	–	–	–	–	–
COc1cc2c(cc1OC)-c1cc(OC)c(OC)cc1C(CN(C)C)C2 (stereo not given)	> 10	> 10	> 10	> 10 µM	> 10	> 10	> 10	> 10	> 10	–	> 10	> 10 µM	> 10	> 10 µM	> 10	> 10	4.56	> 10	> 10	–
O=c1c2cccnc2ncn1CCN1CCCCC1	–	> 100	> 100	> 100 µM	> 100	–	> 100	> 100	> 100	> 100	–	–	–	–	–	–	–	–	–	–
COc1ccc(C(c2cc(OC)c(OC)c(OC)c2)n2cncn2)cc1O (stereo not given)	> 100	> 100	–	> 100 µM	> 100	0.957	–	> 100	1.48	1.54	0.452	0.374 µM	–	0.321 µM	0.431	0.324	–	0.567	0.323	0.332
CCCOc1nc(N)c2cnn(C3CCCCO3)c2n1 (stereo not given)	> 100	> 100	> 100	> 100 µM	> 100	–	> 100	> 100	> 100	> 100	–	–	–	–	–	–	–	–	–	–
C[C@@H]1CC[C@H]2C(C)(C)[C@H]3C[C@@]12CC[C@@]3(C)O	53.6	> 100	> 100	–	> 100	> 100	> 100	> 100	> 100	> 100	–	–	–	–	–	–	–	–	–	–
CC#Cc1ccc(-c2ccccc2)s1	–	> 100	> 100	> 100 µM	> 100	> 100	> 100	> 100	> 100	> 100	–	–	–	–	–	–	–	–	–	–
O=c1[nH]c(-c2ccccc2)nc2cc(Cl)ccc12	> 100	> 100	> 100	> 100 µM	> 100	> 100	> 100	> 100	> 100	–	–	–	–	–	–	–	–	–	–	–
CN(C)C(=S)/N=c1\ssc(=S)n1C1CCCCC1	–	36.3	> 100	> 100 µM	28.4	> 100	> 100	90.6	–	–	–	–	–	–	–	–	–	–	–	–
COc1ccc(CN2C(=O)C(Cl)=C(Nc3cccc(C(F)(F)F)c3)C2=O)cc1	23.2	–	18.2	6.01 µM	15.7	9.02	27.3	24.4	15.8	18.8	2.38	–	4.89	0.0458 µM	3.61	2.61	11.9	5.16	4.19	5.07
COc1cc(-c2nc3sccn3c2-c2ccnc(NCCNS(=O)(=O)c3ccc(F)cc3)n2)ccc1F	–	> 100	> 100	8.2 µM	> 100	> 100	> 100	> 100	> 100	> 100	–	0.499 µM	3.28	0.75 µM	5.05	2.4	1.54	2.53	3.23	1.98
Cc1nnc2ccnn2c1C	> 100	–	> 100	–	> 100	–	> 100	> 100	> 100	> 100	> 100	–	> 100	–	> 100	–	> 100	> 100	> 100	> 100
